For 27 compounds, Activity, GI50 and inhibition in vivo results are on record in ChEMBL document CHEMBL5096208, “Installation of Pargyline, a LSD1 Inhibitor, in the HDAC Inhibitory Template Culminated in the Identification of a Tractable Antiprostate Cancer Agent” (J Med Chem, 2021).

What is called GI50 is the concentration giving 50% growth inhibition.

Calls of active or inactive are those of the source. The calls are words filed in the database; no cut-off is given here. A value given as a limit tells only on which side of the number the result lay.

In data set [1] the test system is PC-3. As to the kind of experiment: Antiproliferative activity against human PC-3 cells assessed as cell growth inhibition at upto 10 uM. The class given is functional, cell-based. Conditions: time 48.0 hrs.
Data set [2] has as its system DU-145. The data set can be described thus: Antiproliferative activity against human DU-145 cells assessed as cell growth inhibition incubated for 48 hrs by MTT assay. The class given is functional. For orientation: Tetrazolium assays rely on reduction of a dye to a coloured formazan, in cell work by metabolically active cells.
Data set [3] concerns PC-3. As to the kind of experiment: Antiproliferative activity against human PC-3 cells assessed as cell growth inhibition incubated for 48 hrs by MTT assay. The data set is classed as functional.
The subject of data set [4] is DU-145. As to the kind of experiment: Antitumor activity against human DU-145 cells xenografted in athymic nude mouse assessed as tumor growth inhibition at 20 mg/kg, ip administered every 4 days for 5 doses and measured upto 60 days by caliper method relative to control. Conditions: DU-145, 1440 h, time <= 60 day, read-out: TGI. The data set is classed as functional. Background: In xenograft studies the graft and the host belong to different species.

Data set [5] is described as follows: Toxicity in athymic nude mouse xenografted with human DU-145 cells assessed as change in body weight at 20 mg/kg, ip administered every 4 days for 5 doses and measured upto 60 days. The data set is classed as organism-based. As to conditions: in vivo, 1440 h, time < 60 day.
Data set [6] can be described thus: Toxicity in athymic nude mouse xenografted with human DU-145 cells assessed as change in body weight at 50 mg/kg, po qd measured upto 60 days. As to conditions: in vivo, 1440 h, time < 60 day. The data set is classed as organism-based.
A short description of data set [7]: Toxicity in athymic nude mouse xenografted with human PC-3 cells assessed as change in body weight at 50 to 100 mg/kg, po qd measured upto 25 days. The data set is classed as organism-based. As to conditions: in vivo, 600 h, dose 50-100 mg/kg, time < 25 day.
The test system of data set [8] is PC-3. As to the kind of experiment: Antitumor activity against human PC-3 cells xenografted in athymic nude mouse assessed as tumor growth inhibition at 20 mg/kg, ip administered every 4 days for 4 doses and measured upto 25 days by caliper method relative to control. The class given is functional. As to conditions: PC-3, 600 h, time <= 25 day, read-out: TGI.
Data set [9] can be described thus: Toxicity in athymic nude mouse xenografted with human DU-145 cells assessed as change in body weight at 100 to 200 mg/kg, po administered every 2 days and measured upto 60 days. As to conditions: in vivo, 1440 h, dose 100-200 mg/kg, time < 60 day. The class given is organism-based.
The nature of data set [10]: Toxicity in athymic nude mouse xenografted with human PC-3 cells assessed as change in body weight at 20 mg/kg, ip administered every 4 days for 4 doses and measured upto 25 days. The class given is organism-based. As to conditions: in vivo, 600 h, time < 25 day.

For the compound `Cn1cc(-c2ccc(S(=O)(=O)n3ccc(/C=C/C(=O)Nc4ccccc4N)c3)cc2)cn1`, in the data set with PC-3 [1], the result was Active.

`C#CCN(C)Cc1cccc(NS(=O)(=O)c2cccc(/C=C/C(=O)NO)c2)c1`: the GI50 in the data set with DU-145 [2] came to 0.21 µM; with PC-3 [3], 1.23 µM.

For the compound `C#CCN(C)Cc1ccc(NC(=O)CCCCCCCC(=O)NO)cc1`, the results for the GI50 with DU-145 [2] and with PC-3 [3] were 3.4 µM and 7.16 µM, respectively.

For the compound `C#CCN(C)Cc1ccc(NC(=O)CCCCC(=O)NO)cc1`, the GI50 with DU-145 [2] and in the data set on PC-3 [3] was > 10 µM each time.

Turning to `C#CCN(C)Cc1ccc(NC(=O)CCCC(=O)NO)cc1`, the GI50 in the data set on DU-145 [2] and in the data set with PC-3 [3] was > 10 µM each time.

As to `C#CCN(C)Cc1ccc(NC(=O)CCCCCCC(=O)NO)cc1`, the GI50 with DU-145 [2] worked out at 1.51 µM; with PC-3 [3] it was 2.28 µM.

With `CNC(=O)c1ccc(N2C(=S)N(c3ccc(C#N)c(C(F)(F)F)c3)C(=O)C2(C)C)cc1F` [ENZALUTAMIDE], the 50% growth inhibitory concentration (GI50) in the data set on DU-145 [2] and in the data set on PC-3 [3] was > 10 µM in each case.

As for `C#CCN(C)Cc1cccc(NC(=O)CCCCC(=O)NO)c1`, the GI50 in the data set on DU-145 [2] is 9.75 µM; in the data set on PC-3 [3] it was 5.15 µM.

Consider `CC(=O)O[C@H]1C(=O)[C@@]2(C)[C@H]([C@H](OC(=O)c3ccccc3)[C@]3(O)C[C@H](OC(=O)[C@H](O)[C@@H](NC(=O)c4ccccc4)c4ccccc4)C(C)=C1C3(C)C)[C@]1(OC(C)=O)CO[C@@H]1C[C@@H]2O` [PACLITAXEL], for which the inhibition in vivo at 20 mg/kg in the data set with DU-145 [4] was found to be 47%; in the data set with PC-3 [8], 47.8%. Besides, the Activity entry in [5], in data set [6], in [7], in data set [9] and in data set [10] was “Non-Toxic” each time.

For the compound `C#CCN(C)Cc1cccc(NS(=O)(=O)c2ccc(/C=C/C(=O)NO)cc2)c1`, the GI50 with DU-145 [2] came to 2.35 µM; in the data set with PC-3 [3] it was 2.23 µM.

As for `C#CCN(C)Cc1ccc(NC(=O)CCC(=O)NO)cc1`, the GI50 in the data set on DU-145 [2] and with PC-3 [3] was > 10 µM each time.

In the case of `C#CCN(C)Cc1cccc(NC(=O)CCC(=O)NO)c1`, the concentration for 50% growth inhibition (GI50) with DU-145 [2] and in the data set on PC-3 [3] was > 10 µM throughout.

As to `C#CCN(C)Cc1cccc(NCc2ccc(C(=O)NO)cc2)c1`, the GI50 in the data set on DU-145 [2] and in the data set with PC-3 [3] was > 10 µM in each case.

With `C#CCN(C)Cc1cccc(NC(=O)CCCC(=O)NO)c1`, the GI50 with DU-145 [2] and in the data set with PC-3 [3] was > 10 µM throughout.

As for `C#CCN(C)Cc1ccc(NS(=O)(=O)c2ccc(/C=C/C(=O)NO)cc2)cc1`, the values for the GI50 with DU-145 [2] and in the data set with PC-3 [3] were 0.96 µM and 0.71 µM, respectively.

In the case of `C#CCN(C)Cc1ccc(NCc2ccc(/C=C/C(=O)NO)cc2)cc1`, the GI50 in the data set on DU-145 [2] is 0.56 µM; with PC-3 [3], 0.75 µM.

As to `C#CCN(C)Cc1ccc(NC(=O)CCCCCCCCC(=O)NO)cc1`, the GI50 in the data set with DU-145 [2] amounted to 2.74 µM; in the data set with PC-3 [3] it was 4.26 µM.

With `C#CCN(C)Cc1ccc(NC(=O)CCCCCC(=O)NO)cc1`, the GI50 with DU-145 [2] and with PC-3 [3] was > 10 µM throughout.

Consider `C#CCN(C)Cc1cccc(NCc2ccc(/C=C/C(=O)NO)cc2)c1`, for which the results for the concentration for 50% growth inhibition (GI50) in the data set with DU-145 [2] and with PC-3 [3] were 0.54 µM and 0.85 µM, respectively.

As to `C#CCN(C)Cc1ccc(NS(=O)(=O)c2cccc(/C=C/C(=O)NO)c2)cc1`, the GI50 with DU-145 [2] came out at 0.21 µM; in the data set with PC-3 [3] it was 0.367 µM.

On to `Nc1ccccc1NC(=O)c1ccc(CCCC(=O)Nc2ccc([C@H]3C[C@@H]3N)cc2)cc1`, for which the outcome with PC-3 [1] was Active.

On to `C[C@]12CC[C@H](O)CC1=CC[C@@H]1[C@@H]2CC[C@]2(C)C(c3cccnc3)=CC[C@@H]12` [ABIRATERONE], for which the GI50 in the data set on DU-145 [2] and with PC-3 [3] was > 10 µM each time.

As for `C#CCN(C)Cc1cccc(NC(=O)CCCCCCCC(=O)NO)c1`, the concentration for 50% growth inhibition (GI50) in the data set with DU-145 [2] turned out to be 3.78 µM; with PC-3 [3] it was 4.07 µM.

On to `C#CCN(C)Cc1ccccc1` [PARGYLINE], for which the GI50 in the data set with DU-145 [2] worked out at 219 µM; with PC-3 [3] it was 197 µM.

Consider `C#CCN(C)Cc1ccc(NCc2ccc(C(=O)NO)cc2)cc1`, for which the GI50 with DU-145 [2] and in the data set with PC-3 [3] was > 10 µM each time.

Turning to `C#CCN(C)Cc1cccc(NC(=O)CCCCCCCCC(=O)NO)c1`, the GI50 in the data set on DU-145 [2] worked out at 2.94 µM; with PC-3 [3], 1.79 µM.

Regarding `C#CCN(C)Cc1cccc(NC(=O)CCCCCC(=O)NO)c1`, the values for the GI50 in the data set with DU-145 [2] and in the data set with PC-3 [3] were 4.29 µM and 4.63 µM, respectively.
